The text below walks through data of patent US9808461B2, “Protection of renal tissues from ischemia through inhibition of the proliferative kinases CDK4 and CDK6” (The University of North Carolina at Chapel Hill, priority 2010, dated 2017).

“Also recorded” adds a separate entry of the source.

One test has as its system renal epithelial cells. As to the kind of experiment: BrdU incorporation into renal epithelial cells after ischemia reperfusion injury. The class given is in vivo, mice. The procedure: FIG. 3A is a schematic diagram showing a dosing schedule for studies of 5-bromo-2-deoxyuridine (BrdU) incorporation into epithelial cells following ischemic reperfusion injury after a single dosing of a CDK4/6 inhibitor. Mice were treated with 6-acetyl-8-cyclopentyl-5-methyl-2-(5-piperazin-1-yl-pyridin-2-ylamino)-8H-pyrido-[2,3-d]pyrimidin-7-one (PD0332991; 150 mg/kg) or vehicle (sodium lactate buffer) by oral gavage one hour before ischemic reperfusion injury. BrdU (100 mg/kg) was administered via i.p. injection 21 hours after injury. Mice were sacrificed 3 hours after the BrdU injection, and BrdU incorporation into the renal epithelial cells was quantified. […] Three hours following the second injection of BrdU, the mice were sacrificed and BrdU incorporation into the renal epithelial cells was quantified. […] Kidney cell proliferation following ischemia reperfusion injury (IRI) was monitored (based on BrdU incorporation in renal epithelial cells) following a one time, pre-IRI PD0332991 or vehicle (sodium lactate buffer) dosing as shown in FIG. 3A and following a two time (once pre-IRI and once post-IRI) PD0332991 or vehicle dosing as shown in FIG. 3B. […] BrdU positive (BrdU(+)) cells were quantified visually by counting the number of BrdU(+) cells in a field of kidney epithelial cells under magnification. […]

Test [1] deals with primary human renal proximal tubule epithelial cells. Put plainly: Cell proliferation, CellTiter-Glo. The class given is cell-based. As to conditions: 10 nM to 3 μM, 72 hours post treatment. The procedure: Cells were treated with varying concentrations (0 nM, 10 nM, 30 nM, 100 nM, 300 nM, or 1 μM) of 6-acetyl-8-cyclopentyl-5-methyl-2-(5-piperazin-1-yl-pyridin-2-ylamino)-8H-pyrido-[2,3-d]pyrimidin-7-one (PD0332991) for 72 hours. Following incubation, cell proliferation was quantified using CellTiter-Glo® (Promega, Madison, Wis., United States of America). Data represent the mean of four replicates (relative light units, RLU)+/−standard deviation. Inhibition of CDK4/6 blocks the proliferation of normal human primary renal proximal tubule epithelial cells. These cells were seeded at an appropriate density in 96 well plates and incubated for 24 hours at 37° C. in a humidified incubator at 5% CO2. Cells were then exposed to a potent and selective CDK4/6 inhibitor, in this case PD0332991, across a broad dose range 24 hours later. The dose range explored is 0, 10 nM, 30 nM, 100 nM, 300 nM, 1 μM or 3 μM PD0332991. Seventy-two hours post exposure, the CDK4/6 inhibited cells were treated with CellTiter-Glo® (Promega, Madison, Wis., United States of America) using manufacturer's specifications. The plate was read in luminometer at 1 second/well. Results were placed in Microsoft Excel and analyzed.

For test [2] the test system is unchanged. Put plainly: Cell cycle analysis (propidium iodide staining, flow cytometry). The class given is cell-based. Conditions: 0, 10 nM, 30 nM, 100 nM, 300 nM or 1 μM for 16 hours. The method, then:
Representative histograms of cell cycle analysis of primary human renal proximal tubule epithelial cells treated with varying concentrations (0 nM, 10 nM, 30 nM, 100 nM, 300 nM, or 1 μM) of 6-acetyl-8-cyclopentyl-5-methyl-2-(5-piperazin-1-yl-pyridin-2-ylamino)-8H-pyrido-[2,3-d]pyrimidin-7-one (PD0332991) for 16 hours. Cells were harvested, fixed, stained, and analyzed by flow cytometry. Data was fitted using Mod-Fit™ software from Verity (Verity Software House, Topsham, Me., United States of America). […] Cell cycle analysis of primary human renal proximal tubule epithelial cells treated with varying concentrations (0 nM, 10 nM, 30 nM, 100 nM, 300 nM, or 1 μM) of 6-acetyl-8-cyclopentyl-5-methyl-2-(5-piperazin-1-yl-pyridin-2-ylamino)-8H-pyrido-[2,3-d]pyrimidin-7-one (PD0332991) for 16 hours. Cells were harvested, fixed, stained, and analyzed by flow cytometry. Data was fitted using Mod-Fit™ software from Verity (Verity Software House, Topsham, Me., United States of America). […] Samples were processed and the DNA was stained with propidium iodide (PI) solution and analyzed by flow cytometry. FCS files from flow cytometer were further analyzed using cell cycle analysis software ModFit™ from Verity (Verity Software House, Topsham, Me., United States of America), where cell cycle fractions were calculated as a percentage of the whole population.

Test [3] is described as follows: Serum creatinine after bilateral ischemia reperfusion injury. In kind it is in vivo, mice. Conditions: 150 mg/kg oral gavage 1 hour prior to bilateral IRI; N=9; vehicle group 2.27. The procedure: PD0332991 was dissolved in 50 mM sodium lactate buffer (pH 4.0) to a final concentration of 15 mg/mL. Mice were treated with a 150 mg/kg dose of PD0332991, or vehicle, 1 hour prior to ischemia reperfusion surgery by oral gavage. 8 week old male mice were anesthetized with pentobarbital sodium (60 mg/kg body weight, intraperitoneally) prior to surgery. Body temperatures were controlled at 36.5° C.-37.5° C. throughout the procedure. Bilateral flank incisions into the peritoneum allowed access to both kidneys. Kidneys were exposed and ischemia was induced by simultaneously clamping the renal pedicle of both kidneys with nontraumatic microaneurysm clamps (Roboz, Rockville, Md.). Clamped kidneys were placed back into the peritoneal cavity for 28 minutes, and clamps were then removed resulting in reperfusion injury. The flank incisions were closed with wound clips and the mice were allowed to recover in their home cages. […] Serum creatinine was measured by the Beckman Creatinine Analyzer 2, which utilizes a 10 mM picric acid solution mixed with a buffer containing 10 mM sodium borate, 240 mM sodium hydroxide, and 10 mM sodium dodecyl sulfate (SDS). Serum creatinine is measured against a creatinine standard and recorded as milligrams per deciliter.

With `CC(=O)c1c(C)c2cnc(Nc3ccc(N4CCNCC4)cn3)nc2n(C2CCCC2)c1=O` [PD0332991, 6-acetyl-8-cyclopentyl-5-methyl-2-(5-piperazin-1-yl-pyridin-2-ylamino)-8H-pyrido-[2,3-d]-pyrimidin-7-one], in the test with renal epithelial cells (150 mg/kg oral gavage one time, 1 hour before IRI (FIG. 3A schedule)), the “BrdU(+) renal epithelial cells 24 hours after injury, versus vehicle” value is recorded as “significantly less BrdU(+) cells; also recorded: prevents epithelial cells from entering S-phase”. Further, the “BrdU incorporation in renal epithelial cells 48 hours after injury, versus vehicle” value with renal epithelial cells (150 mg/kg oral gavage two doses, once pre-IRI and once post-IRI (FIG. 3B schedule)) is recorded as “less BrdU incorporation; also recorded: prevents epithelial cells from entering S-phase”. The “cell proliferation (relative light units) compared to DMSO control” value in test [1] is “clear dose dependent inhibition of cell proliferation; also recorded: blocks proliferation”. In test [2], the “G1 cell cycle arrest” value is given as “induces a G1 arrest; also recorded: “clean” G1-arrest without evidence of cytotoxicity”; the “cell cycle fractions (G0/G1, G2/M, S-phase)” value is “dose dependent increase in the G0/G1 fraction of the cell cycle was observed with a consummate decrease in both G2/M and S-phase fractions”. Further, the “average serum creatinine 24 hours after surgery” value in test [3] amounted to 1.74 mg/dL.
